This note sets out measurements from patent publication US10590086B2, “Pharmaceutical compound” (IOmet Pharma Ltd., priority 2014, dated 2020).

The structures appear in SMILES notation. Bounds are passed on as bounds.

The target in assay [1] is T1, IDO (Homo sapiens, UniProt P14902). Description: hIDO biochemical coupled assay. To be noted: 45 μM L-tryptophan, 17 minutes, room temperature; read-out: hIDO biochemical assay pIC50 (converted).
Assay [2] concerns the target T2, TDO (Homo sapiens, UniProt P48775). Description: A172 kynurenine cell-based assay. Further details: This assay utilised cancer cells which expressed either TDO or IDO; endogenous in cells; host or cells: A172 (human glioblastoma). To be noted: A172 human glioblastoma cells, 48 hours, 500 μM L-tryptophan; read-out: A172 Kynurenine cell based assay pIC50 (converted). The method in brief: (§1)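 Cellular kynurenine production, TDO via A172 glioblastoma and IDO via IFN-γ-stimulated SKOV3 ovarian adenocarcinoma cells, was quantified after 48 hours' compound treatment in 500 μM L-tryptophan medium, using Erhlich's reagent and absorbance at 490 nm.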

Assay [3] has as its target T2, TDO. Description: hTDO biochemical coupled assay. To be noted: 330 μM L-tryptophan, 17 minutes, room temperature; read-out: hTDO biochemical assay pIC50 (converted).
The target in assay [4] is T1, IDO. Nature of the assay: SKOV3 kynurenine cell-based assay (IDO induced by IFN-γ). Further details: IDO expression was induced in the SKOV3 cells by the addition of 500 ng/ml IFN-γ; endogenous in cells; host or cells: SKOV3 (human ovarian adenocarcinoma), induced with IFN-γ. The following applies: SKOV3 human ovarian adenocarcinoma cells, 500 ng/ml IFN-γ, 48 hours, 500 μM L-tryptophan; read-out: SKOV3 Kynurenine cell based assay pIC50 (converted). Summed up:
as §1

T2 sequence (P48775 whole entry): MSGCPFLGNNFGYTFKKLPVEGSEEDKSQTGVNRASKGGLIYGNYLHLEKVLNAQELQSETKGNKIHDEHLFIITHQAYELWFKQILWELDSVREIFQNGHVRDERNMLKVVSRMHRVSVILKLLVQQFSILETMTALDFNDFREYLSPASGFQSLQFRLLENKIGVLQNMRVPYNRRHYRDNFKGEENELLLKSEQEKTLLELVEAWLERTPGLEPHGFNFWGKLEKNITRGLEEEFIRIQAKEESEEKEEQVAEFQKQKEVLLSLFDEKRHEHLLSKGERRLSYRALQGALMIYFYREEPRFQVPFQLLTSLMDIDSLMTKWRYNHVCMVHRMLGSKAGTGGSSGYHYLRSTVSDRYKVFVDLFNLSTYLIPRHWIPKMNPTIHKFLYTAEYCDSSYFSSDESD
T1 sequence (P14902 whole entry): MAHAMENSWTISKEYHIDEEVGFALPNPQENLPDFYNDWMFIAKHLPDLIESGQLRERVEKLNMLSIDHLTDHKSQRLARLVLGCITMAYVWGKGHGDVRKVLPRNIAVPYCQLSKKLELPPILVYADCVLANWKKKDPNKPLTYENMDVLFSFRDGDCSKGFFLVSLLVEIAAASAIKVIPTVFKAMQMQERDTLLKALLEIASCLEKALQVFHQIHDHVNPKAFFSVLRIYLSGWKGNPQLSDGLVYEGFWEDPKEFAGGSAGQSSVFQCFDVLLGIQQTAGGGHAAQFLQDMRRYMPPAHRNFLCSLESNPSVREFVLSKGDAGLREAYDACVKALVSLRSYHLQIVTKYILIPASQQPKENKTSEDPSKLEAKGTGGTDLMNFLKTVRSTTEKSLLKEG

For the molecule `CS(=O)(=O)N1CC2(CN(c3cc(Cl)cc4[nH]ncc34)C2)C1` [Compound 395], the IC50 on IDO [1] is more than 100 µM; on TDO [2], less than 3.16 µM; at TDO [3] it was less than 3.16 µM; on IDO [4] it was less than 3.16 µM.
Turning to `CS(=O)(=O)N1CCC(c2cccc3[nH]ncc23)CC1` [Compound 12], the IC50 on IDO [1] is more than 100 µM; on TDO [2], 3.24 to 31.6 µM; at TDO [3], 3.24 to 31.6 µM; on IDO [4], more than 100 µM.
For `Cc1nn(C)c2c1CN(c1cc(Cl)cc3[nH]ncc13)CC2` [Compound 376], the IC50 on IDO [1] was more than 100 µM; on TDO [2] it was less than 3.16 µM; on TDO [3] it was less than 3.16 µM; at IDO [4], 3.24 to 31.6 µM.
Regarding `CNC(=O)c1ccc(-c2cc(Cl)cc3[nH]ncc23)cc1` [Compound 257], the IC50 is more than 100 µM at IDO [1], less than 3.16 µM at TDO [2], less than 3.16 µM on TDO [3] and 3.24 to 31.6 µM at IDO [4].
As to `CN1CCN(C2CCN(c3cc(Cl)cc4[nH]ncc34)CC2)C1=O` [Compound 411], the IC50 on IDO [1] was more than 100 µM; at TDO [2], less than 3.16 µM; at TDO [3], less than 3.16 µM; at IDO [4], less than 3.16 µM.
In the case of `CNC(=O)NC1CCN(c2cc(Cl)cc3[nH]ncc23)CC1` [Compound 377], the IC50 at IDO [1] is 32.4 to 100 µM; at TDO [2], less than 3.16 µM; at TDO [3], less than 3.16 µM; on IDO [4], 3.24 to 31.6 µM.
Turning to `COC(C)c1cc(Cl)cc2[nH]ncc12` (centres unmarked) [Compound 287], the IC50 is more than 100 µM at IDO [1], 3.24 to 31.6 µM at TDO [2], 3.24 to 31.6 µM on TDO [3] and more than 100 µM at IDO [4].
For the molecule `Cn1cc2c(n1)CCN(c1cc(Cl)cc3[nH]ncc13)C2` [Compound 360], the IC50 is 32.4 to 100 µM on IDO [1], less than 3.16 µM on TDO [2], less than 3.16 µM at TDO [3] and 3.24 to 31.6 µM at IDO [4].
For the molecule `NS(=O)(=O)N1CCC2(CCN(c3cc(Cl)cc4[nH]ncc34)CC2)CC1` [Compound 363], the IC50 at IDO [1] is 32.4 to 100 µM; at TDO [2] it was less than 3.16 µM; at TDO [3], less than 3.16 µM; on IDO [4], 3.24 to 31.6 µM.
On to `CC(=O)NCCN1C(=O)NC2(CCN(c3cc(Cl)cc4[nH]ncc34)CC2)C1=O` [Compound 412], for which the IC50 was less than 3.16 µM at IDO [1], less than 3.16 µM on TDO [2], less than 3.16 µM on TDO [3] and more than 100 µM on IDO [4].
As for `CS(=O)(=O)N1CCC(c2cc(N3CCCC3)cc3[nH]ncc23)CC1` [Compound 383], the IC50 was more than 100 µM at IDO [1], 32.4 to 100 µM at TDO [2], more than 100 µM at TDO [3] and more than 100 µM on IDO [4].
With `CNC(=O)C1CCN(c2cc(Cl)cc3[nH]ncc23)C1` (centres unmarked) [Compound 298], the IC50 was 3.24 to 31.6 µM on IDO [1], 3.24 to 31.6 µM at TDO [2], less than 3.16 µM at TDO [3] and 3.24 to 31.6 µM on IDO [4].
In the case of `CS(=O)(=O)N1CCN(c2cccc3[nH]ncc23)CC1` [Compound 10], the IC50 at IDO [1] was more than 100 µM; at TDO [2], 3.24 to 31.6 µM; on TDO [3], 3.24 to 31.6 µM; on IDO [4], 32.4 to 100 µM.
With `Clc1cc(N2CCN(c3ccccn3)CC2)c2cn[nH]c2c1` [Compound 324], the IC50 at IDO [1] was more than 100 µM; on TDO [2], less than 3.16 µM; on TDO [3], less than 3.16 µM; at IDO [4], 3.24 to 31.6 µM.
Turning to `CN(C)C(=O)CC1CCN(c2cc(Cl)cc3[nH]ncc23)CC1` [Compound 362], the IC50 on IDO [1] is more than 100 µM; at TDO [2] it was 3.24 to 31.6 µM; on TDO [3], less than 3.16 µM; on IDO [4], 3.24 to 31.6 µM.
Take `CS(=O)(=O)N1CCC(C(O)c2cc(Cl)cc3[nH]ncc23)CC1` (centres unmarked) [Compound 333]: the IC50 at IDO [1] was more than 100 µM; on TDO [2], 3.24 to 31.6 µM; on TDO [3], less than 3.16 µM; on IDO [4], 32.4 to 100 µM.
On to `CC(=O)N1CCN(c2cc(Cl)cc3c(N)n[nH]c23)CC1(C)C` [Compound 307], for which the IC50 at IDO [1] was less than 3.16 µM; at TDO [2] it was more than 100 µM; at TDO [3], less than 3.16 µM; at IDO [4], 3.24 to 31.6 µM.
